According to patent EP0394122A2, “Use of tetracyclines to manufacture a medicament for the treatment and prevention of AIDS” (priority 1989, dated 1990):

Experiments:
[1] = tested on: reverse transcriptase du virus HIV; assay: Reverse transcriptase activity in culture supernatant of infected, protected CEM cells (virus production); type: cell-based
Excerpt: Chaque échantillon est divisé en 2 parties, l'une recevant à nouveau le produit étudié et l'autre cultivée en l'absence de produit.
Les cellules sont cultivées pendant 2 mois.
Les cellules infectées traitées ou non de manière continue par la minocycline ou la doxycycline ont été examinées en ce qui concerne la production de virus. La technique utilisée pour la détermination virale a été celle du dosage de la reverse transcriptase du virus HIV.
L'activité de la reverse transcriptase est mesurée directement sur 50 µl de surnageant de culture. 10 µl de tampon contenant 0,5 M de KCl, 5 mM de dithiotreitol (DTT) et 0,5 % de Triton X-100 sont ajoutés à tous les micropuits contenant les 50 µl de surnageant à tester. 40 µl de tampon contenant 1,25 mM d'éthylène glycol-bis(β-aminoéthyl éther) (EGTA), 0,125 M de Tris.HCl pH 7,8, 12,5 mM de MgCl₂, 3 µCi de (³H) Thymidine triphosphate (TTP), 0,05 DO₂₆₀ d'acide polyadénylique - acide thymidylique (poly rA-oligo dT) sont ajoutés ensuite. La microplaque est couverte au moyen d'un film plastique et incubée 60 minutes à 37°C.
On arrête la réaction en ajoutant 20 µl d'une solution glacée de 120 mM de Na₄P₂O₇ dans 60 % d'acide trichloracétique et les échantillons sont placés 15 minutes sur un lit de glace.
Les précipités sont filtrés sur fibres de verre en utilisant un laveur de cellules (Skatron) et les filtres sont lavés avec une solution de 12 mM de Na₄P₂O₇ dans 5 % d'acide trichloracétique.
Les filtres sont séchés et la radioactivité est comptée après ajout d'un liquide scintillant. Les essais sont faits en triple.

[2] = tested on: lignée lymphoblastoïde CEM clone 13; assay: Cytotoxicity on non-infected CEM clone 13 cells (MTT viability); type: cell-based, humaines
Protocol: Dans une microplaque de 96 puits on dépose 25 µl/puits d'une solution de produit à tester ou de tampon phosphate isotonique (TPI) dans le cas des contrôles. Les produits sont étudiés à différentes concentrations (souvent 8), à raison de 4 puits par concentration. On ajoute alors 125 µl d'une suspension de cellules CEM dans le milieu RPMI contenant 10 % de sérum de veau foetal, 40 U/ml de pénicilline, 40 µg/ml de streptomycine et 5 µg/ml de polybrène (3500 cellules par puits) et les microplaques sont incubées une heure à 37°C, sous une atmosphère contenant 5 % de gaz carbonique. Pour chaque concentration, l'essai est partagé en 2 parties : une partie sur cellules infectées, pour la détermination de l'activité antivirale et l'autre partie sur cellules non infectées, pour déterminer la cytotoxicité des produits. On infecte alors la première série avec HIV (100 µl par puit d'une suspension de virus LAV-1-BRU contenant 200-300 TCID50) tandis que l'autre série reçoit 100 µl de milieu RPMI tel que défini précédemment. Au bout de 7 jours d'incubation, 175 µl de surnageant sont prélevés et rejetés. La viabilité cellulaire est déterminée selon une modification de la technique décrite par R. Pauwels et coll., J. Virol.
Les puits, contenant encore les cellules (infectées ou non infectées), reçoivent 10 µl d'une solution de MTT (méthylthiazoletétrazolium) à 5 mg/ml dans du tampon phosphate isotonique. Pendant une période d'incubation de 4 heures, le MTT est converti en un sel de formazan (bleu) à l'intérieur des cellules vivantes et proportionnellement à leur nombre, alors que rien n'apparaît dans les puits ne contenant plus que des cellules mortes. On ajoute alors 120 µl d'isopropanol (contenant 0,04 mole/l d'acide chlorhydrique) et les microplaques sont agitées jusqu'à la solubilisation du bleu de formazan. L'absorption à 540 nm est lue avec un lecteur automatique de réactions ELISA en microplaques.
Pour les essais de plus longue durée, on procède comme décrit précédemment jusqu'au jour 7. A ce moment, 100 µl de cellules sont prélevés pour mesurer la proportion de cellules vivantes et le restant est remis en culture avec du milieu frais contenant les produits aux mêmes concentrations. Cette opération est répétée tous les 4 jours.

[3] = product present du jour 0 au jour 18 (1,2 µg/ml), day 20 after infection
[4] = product present du jour 0 au jour 18 (1,2 µg/ml), day 39 after infection
[5] = product present du jour 0 au jour 18 (1,2 µg/ml), day 42 after infection
[6] = product present du jour 0 au jour 18 (1,2 µg/ml), day 46 after infection
[7] = product present du jour 0 au jour 18 (1,2 µg/ml), day 49 after infection
[8] = product present du jour 0 au jour 18 (1,2 µg/ml), day 53 after infection
[9] = product present du jour 0 au jour 18 (1,2 µg/ml), day 56 after infection
[10] = product present du jour 0 au jour 18 (1,2 µg/ml), day 60 after infection
[11] = product present du jour 0 au jour 18 (1,2 µg/ml), day 80 after infection
[12] = product present du jour 0 à la fin de l'expérience (1,2 µg/ml), day 20 after infection
[13] = product present du jour 0 à la fin de l'expérience (1,2 µg/ml), day 39 after infection
[14] = product present du jour 0 à la fin de l'expérience (1,2 µg/ml), day 42 after infection
[15] = product present du jour 0 à la fin de l'expérience (1,2 µg/ml), day 46 after infection
[16] = product present du jour 0 à la fin de l'expérience (1,2 µg/ml), day 49 after infection
[17] = product present du jour 0 à la fin de l'expérience (1,2 µg/ml), day 53 after infection
[18] = product present du jour 0 à la fin de l'expérience (1,2 µg/ml), day 56 after infection
[19] = product present du jour 0 à la fin de l'expérience (1,2 µg/ml), day 60 after infection
[20] = product present du jour 0 à la fin de l'expérience (1,2 µg/ml), day 80 after infection

Compound | Activité de la reverse transcriptase [1, 3] [coups/mn x 10⁻³] | Activité de la reverse transcriptase [1, 4] [coups/mn x 10⁻³] | Activité de la reverse transcriptase [1, 5] [coups/mn x 10⁻³] | Activité de la reverse transcriptase [1, 6] [coups/mn x 10⁻³] | Activité de la reverse transcriptase [1, 7] [coups/mn x 10⁻³] | Activité de la reverse transcriptase [1, 8] [coups/mn x 10⁻³] | Activité de la reverse transcriptase [1, 9] [coups/mn x 10⁻³] | Activité de la reverse transcriptase [1, 10] [coups/mn x 10⁻³] | Activité de la reverse transcriptase [1, 11] [coups/mn x 10⁻³] | Activité de la reverse transcriptase [1, 12] [coups/mn x 10⁻³] | Activité de la reverse transcriptase [1, 13] [coups/mn x 10⁻³] | Activité de la reverse transcriptase [1, 14] [coups/mn x 10⁻³] | Activité de la reverse transcriptase [1, 15] [coups/mn x 10⁻³] | Activité de la reverse transcriptase [1, 16] [coups/mn x 10⁻³] | Activité de la reverse transcriptase [1, 17] [coups/mn x 10⁻³] | Activité de la reverse transcriptase [1, 18] [coups/mn x 10⁻³] | Activité de la reverse transcriptase [1, 19] | Activité de la reverse transcriptase [1, 20] [coups/mn x 10⁻³] | Cellules non infectées Densité optique ([2]; 0,01 µg/ml, JOUR 14) | Cellules non infectées Densité optique ([2]; 0,01 µg/ml, JOUR 18) | also measured
CN(C)c1ccc(O)c2c1C[C@H]1C[C@H]3[C@H](N(C)C)C(O)=C(C(N)=O)C(=O)[C@@]3(O)C(O)=C1C2=O [Exemple 5, minocycline] | 27 | 21 | 37 | 19 | 21 | 17 | 3 | 2 | 3 | 25 | 33 | 33 | 29 | 37 | 14 | 2 | 2 coups/mn x 10⁻³ | 5 | 1,100 | 1,050 | Cellules non infectées Densité optique ([2]; 0,01 µg/ml, day 7): 1,590; Cellules non infectées Densité optique ([2]; 0,04 µg/ml, JOUR 14): 1,250; Cellules non infectées Densité optique ([2]; 0,04 µg/ml, JOUR 18): 1,050; Cellules non infectées Densité optique ([2]; 0,04 µg/ml, day 7): 1,650; Cellules non infectées Densité optique ([2]; 0,12 µg/ml, JOUR 14): 1,200; Cellules non infectées Densité optique ([2]; 0,12 µg/ml, JOUR 18): 1,100; Cellules non infectées Densité optique ([2]; 0,12 µg/ml, day 7): 1,750; Cellules non infectées Densité optique ([2]; 0,37 µg/ml, JOUR 14): 1,250; Cellules non infectées Densité optique ([2]; 0,37 µg/ml, JOUR 18): 1,150; Cellules non infectées Densité optique ([2]; 0,37 µg/ml, day 7): 1,670; Cellules non infectées Densité optique ([2]; 10 µg/ml, JOUR 14): 0,100; Cellules non infectées Densité optique ([2]; 10 µg/ml, JOUR 18): 0,100; Cellules non infectées Densité optique ([2]; 10 µg/ml, day 7): 0,480; Cellules non infectées Densité optique ([2]; 30 µg/ml, day 7): 0,420; Cellules non infectées Densité optique ([2]; 1,11 µg/ml, JOUR 14): 1,200; Cellules non infectées Densité optique ([2]; 1,11 µg/ml, JOUR 18): 1,100; Cellules non infectées Densité optique ([2]; 1,11 µg/ml, day 7): 1,760; Cellules non infectées Densité optique ([2]; 3,33 µg/ml, JOUR 14): 0,350; Cellules non infectées Densité optique ([2]; 3,33 µg/ml, JOUR 18): 0,400; Cellules non infectées Densité optique ([2]; 3,33 µg/ml, day 7): 1,650
doxycycline [Exemple 2] | 21 | 30 | 31 | 21 | 24 | 14 | 2 | 3 | 2 | 25 | 26 | 31 | 27 | 18 | 10 | 2 | 1,4 coups/mn x 10⁻³ | 2 | 0,980 | 1,100 | Cellules non infectées Densité optique ([2]; 0,01 µg/ml, day 7): 1,530; Cellules non infectées Densité optique ([2]; 0,04 µg/ml, JOUR 14): 0,950; Cellules non infectées Densité optique ([2]; 0,04 µg/ml, JOUR 18): 1,050; Cellules non infectées Densité optique ([2]; 0,04 µg/ml, day 7): 1,34; Cellules non infectées Densité optique ([2]; 0,12 µg/ml, JOUR 14): 1,020; Cellules non infectées Densité optique ([2]; 0,12 µg/ml, JOUR 18): 1,020; Cellules non infectées Densité optique ([2]; 0,12 µg/ml, day 7): 1,53; Cellules non infectées Densité optique ([2]; 0,37 µg/ml, JOUR 14): 1,000; Cellules non infectées Densité optique ([2]; 0,37 µg/ml, JOUR 18): 1,000; Cellules non infectées Densité optique ([2]; 0,37 µg/ml, day 7): 1,60; Cellules non infectées Densité optique ([2]; 10 µg/ml, JOUR 14): 0,100; Cellules non infectées Densité optique ([2]; 10 µg/ml, JOUR 18): 0,100; Cellules non infectées Densité optique ([2]; 10 µg/ml, day 7): 0,740; Cellules non infectées Densité optique ([2]; 30 µg/ml, day 7): 0,2; Cellules non infectées Densité optique ([2]; 1,11 µg/ml, JOUR 14): 0,960; Cellules non infectées Densité optique ([2]; 1,11 µg/ml, JOUR 18): 1,020; Cellules non infectées Densité optique ([2]; 1,11 µg/ml, day 7): 1,50; Cellules non infectées Densité optique ([2]; 3,33 µg/ml, JOUR 14): 0,950; Cellules non infectées Densité optique ([2]; 3,33 µg/ml, JOUR 18): 0,950; Cellules non infectées Densité optique ([2]; 3,33 µg/ml, day 7): 1,50
